Assay results from patent US20200031811A1, “SUBSTITUTED MONO- AND POLYAZANAPHTHALENE DERIVATIVES AND THEIR USE” (Basilea Pharmaceutica International AG, priority 2015, published 2020).
pIC50: −log10 of the molar value.

Experiments:
[1] = molecular target: T1, MNK1 (Homo sapiens, UniProt Q9BUB5); test: MNK inhibition assay (Z-Lyte kinase assay, Ser/Thr 7 peptide); type: biochemical; details: recombinant GST-MNK1, 3 hours at 31° C.
T1 construct: purchased Life Technologies or Carna Biosciences PV6023 or 02-145; host or cells: baculovirus infected insect cells
Summary of the method: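 Recombinant GST-MNK1 from baculovirus-infected insect cells, Z-Lyte Ser/Thr 7 peptide, enzyme set for ~30% phosphorylation in buffer-only wells; 3 hours at 31° C. Compounds at 50–10000 nM (potent ones down to 0.5 nM), at least duplicate. IC50 from % substrate phosphorylation versus buffer-only wells, fluorescence read-out.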

[2] = system: human pancreatic cancer cell line MiaPaCa2 (ATCC CRL-1420); test: Cell growth assay (CellTiterGlo, 72 hours); type: cell-based; details: for pIC50: MIA PaCa-2, MiaPaCa2 cells, 72 hours, read-out: IC50 MiaPaCa
Summary of the method: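 MiaPaCa2 cells (10^3/well) seeded in supplemented DMEM overnight, then exposed in quadruplicate to compound at 100 down to 0.1 μM for 72 h at 37° C. Growth read by CellTiterGlo luminescence, medium-only background subtracted, normalised to untreated cells; IC50 = concentration reducing growth to 50%.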

T1 sequence (Q9BUB5 whole entry): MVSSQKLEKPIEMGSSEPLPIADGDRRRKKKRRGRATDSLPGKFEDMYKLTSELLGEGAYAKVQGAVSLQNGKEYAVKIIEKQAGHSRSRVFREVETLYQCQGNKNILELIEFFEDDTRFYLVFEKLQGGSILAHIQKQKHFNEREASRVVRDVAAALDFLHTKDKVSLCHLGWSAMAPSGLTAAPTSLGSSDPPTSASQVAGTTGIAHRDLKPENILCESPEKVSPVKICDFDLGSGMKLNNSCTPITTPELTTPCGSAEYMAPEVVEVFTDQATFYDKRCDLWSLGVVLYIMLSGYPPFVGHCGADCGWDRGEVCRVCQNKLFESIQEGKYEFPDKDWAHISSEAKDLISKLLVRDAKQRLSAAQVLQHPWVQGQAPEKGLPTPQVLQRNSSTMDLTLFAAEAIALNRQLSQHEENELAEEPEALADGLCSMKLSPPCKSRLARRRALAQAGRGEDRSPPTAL

SMILES	pIC50 [1]	pIC50 [2]	inhibition at 100 µM ([2]; MIA PaCa-2, at 100 μM, read-out: Inhibition of MiaPaCa growth at indicated concentration) [%]
CO[C@@H]1CN(Cc2ccc3cncc(-c4cc5ccccc5o4)c3c2)CC[C@H]1N [Example 271]	6.54	5.37	
c1ccc2oc(-c3cncc4ccc(CNc5ccnc6[nH]ccc56)cc34)cc2c1 [Example 272, N-[[4-(Benzofuran-2-yl)-6-isoquinolyl]methyl]-1H-pyrrolo[2,3-b]pyridin-4-amine]	8.27	5.14	
NC1CCN(Cc2ccc3cncc(-c4cc5cccnc5o4)c3c2)CC1 [Example 273, 1-[(4-Furo{2,3-b}pyridin-2-yl-6-isoquinolyl)methyl]piperidin-4-amine]	6.12	4.52	
NC1CCN(Cc2ccc3cncc(-c4cc5ccncc5o4)c3c2)CC1 [Example 274]	6.20	5.40	
NC1CCN(Cc2ccc3cncc(-c4cc5cnccc5o4)c3c2)CC1 [Example 275]	6.76	5.29	
NC1CCN(Cc2ccc3cncc(-c4cc5ncccc5o4)c3c2)CC1 [Example 276]	6.79	4.81	
c1ccc2oc(C3CNNc4ccc(CNc5ccncc5)cc43)cc2c1 (stereo not drawn) [Example 277, N-[[4-(Benzofuran-2-yl)-1,2,3,4-tetrahydrocinnolin-6-yl]methyl]pyridin-4-amine]	6.88	5.24	
Nc1cc(NCc2ccc3nncc(-c4cc5ccccc5o4)c3c2)ccn1 [Example 278, N4-[[4-(Benzofuran-2-yl)cinnolin-6-yl]methyl]pyridine-2,4-diamine]	7.37	5.45	
COc1c(CN2CCC(N)CC2)cc2c(-c3cc4ccccc4o3)cncc2c1OC [Example 279, 1-[[4-(Benzofuran-2-yl)-7,8-dimethoxy-6-isoquinolyl]methyl]piperidin-4-amine]	6.94	5.25	
NC1CCN(Cc2cc3c(-c4cc5ccccc5o4)cncc3c(Cl)c2Cl)CC1 [Example 280, 1-[[4-(Benzofuran-2-yl)-7,8-dichloro-6-isoquinolyl]methyl]piperidin-4-amine]	6.27	5.25	
CCOc1cc(CN2CCC(N)CC2)cc2c(-c3cc4ccccc4o3)cncc12 [Example 281, 1-[[4-(Benzofuran-2-yl)-8-ethoxy-6-isoquinolyl]methyl]piperidin-4-amine]	6.53	5.55	
COc1cc2cncc(-c3cc4ccccc4o3)c2cc1CN1CCC(N)CC1 [Example 282, 1-[[4-(Benzofuran-2-yl)-7-methoxy-6-isoquinolyl]methyl]piperidin-4-amine]	6.82	5.33	
CC(C)Oc1cc(CN2CCC(N)CC2)cc2c(-c3cc4ccccc4o3)cncc12 [Example 283, 1-[[4-(benzofuran-2-yl)-8-isopropoxy-6-isoquinolyl]methyl]piperidin-4-amine]	6.12	5.59	
Nc1ncc(-c2ccc(Cl)cc2)c2cc(CN3CCC(N)CC3)cc(Cl)c12 [Example 284]	6.80	5.37	
Nc1ncc(-c2ccc(F)c(F)c2)c2cc(CN3CCC(N)CC3)cc(Cl)c12 [Example 285]	6.82	5.17	
Nc1ncc(-c2ccco2)c2cc(CN3CCC(N)CC3)cc(Cl)c12 [Example 286]	7.57	5.79	
Nc1ncc(-c2cccs2)c2cc(CN3CCC(N)CC3)cc(Cl)c12 [Example 287]	6.85	5.32	
COc1cc(CN2CCC(N)CC2)cc2c(-c3ccc(Cl)cc3)cncc12 [Example 288]	6.62	5.34	
Nc1ncc(-c2ccco2)c2cc(CN3CCC(N)CC3)ccc12 [Example 289]	6.38	4.99	
Nc1ncc(-c2cccs2)c2cc(CN3CCC(N)CC3)ccc12 [Example 290]	6.74	5.28	
N[C@@H]1CCC[C@@H](Nc2ccc3cncc(-c4cc5ccccc5o4)c3c2)C1 [Example 291]	6.20	5.32	
N[C@@H]1CCC[C@H](Nc2ccc3cncc(-c4cc5ccccc5o4)c3c2)C1 [Example 292]	6.79	5.29	
NC1CCCN(Cc2ccc3cncc(-c4cc5ccccc5o4)c3c2)C1 (stereo not drawn) [Example 293]	5.68	4.84	
c1ccc2oc(-c3cncc4ccc(CN5CCCCC5)cc34)cc2c1 [Example 294]	5.82	4.45	
COc1cc(CN2CCC(N)CC2)cc2c(-c3ccc(Cl)cc3)cnc(N)c12 [Example 295, 6-[(4-Amino-1-piperidyl)methyl]-4-(4-chlorophenyl)-8-methoxy-isoquinolin-1-amine]	6.52	5.77	
COc1cc(CN2CCC(N)CC2)cc2c(-c3ccc(F)c(F)c3)cnc(N)c12 [Example 296]	6.34	5.27	

SMILES	pIC50 [1]	pIC50 [2]	inhibition at 100 µM ([2]; MIA PaCa-2, at 100 μM, read-out: Inhibition of MiaPaCa growth at indicated concentration) [%]
COc1cc(CN2CCC(N)CC2)cc2c(-c3ccco3)cnc(N)c12 [Example 297]	6.54	5.92	
COc1cc(CN2CCC(N)CC2)cc2c(-c3cccs3)cnc(N)c12 [Example 298]	6.55	5.45	
NC1CCN(Cc2ccc3cncc(-c4ccccc4)c3n2)CC1 [Example 299, 1-[(8-Phenyl-1,6-naphthyridin-2-yl)methyl]piperidin-4-amine]	6.63		85
NC1CCN(Cc2ccc3cncc(-c4cc5ccccc5o4)c3n2)CC1 [Example 300, 1-[[8-(Benzofuran-2-yl)-1,6-naphthyridin-2-yl]methyl]piperidin-4-amine]	7.05	5.08	
c1ccc2oc(-c3cncc4ccc(CN5CCCCC5)nc34)cc2c1 [Example 301]	5.77	4.29	
c1ccc2oc(-c3cncc4ccc(CN5CCNCC5)nc34)cc2c1 [Example 302]	6.85	4.74	
N[C@H]1CC[C@H](Nc2ccc3cncc(-c4ccccc4)c3n2)CC1 [Example 303, trans-N4-(8-phenyl-1,6-naphthyridin-2-yl)cyclohexane-1,4-diamine]	7.51	5.02	
N[C@H]1CC[C@H](Nc2ccc3cncc(-c4cc5ccccc5o4)c3n2)CC1 [Example 304, trans-N4-[8-(benzofuran-2-yl)-1,6-naphthyridin-2-yl]cyclohexane-1,4-diamine]	8.00	5.71	
O=C(c1ccc2cncc(-c3cc4ccccc4o3)c2n1)N1CCNCC1 [Example 305]	5.89	4.55	
N#Cc1cc(CN2CCC(N)CC2)cc2c(-c3cc4ccccc4o3)cncc12 [Example 306, 6-[(4-Amino-1-piperidyl)methyl]-4-(benzofuran-2-yl)isoquinoline-8-carbonitrile]	6.75	5.04	
N#Cc1cc(CN2CCC(N)CC2)cc2c(-c3ccccc3)cncc12 [Example 307]	6.59	4.32	
N[C@H]1CC[C@H](Nc2cc(Cl)c3cncc(-c4ccccc4)c3c2)CC1 [Example 308]	7.55	5.63	
N[C@H]1CC[C@H](Oc2ccc3cncc(-c4ccccc4)c3c2)CC1 [Example 309]	7.21	5.35	
N[C@H]1CC[C@H](Oc2cc(Cl)c3cncc(-c4cc5ccccc5o4)c3c2)CC1 [Example 310]	6.87	5.63	
N[C@H]1CC[C@H](Oc2cc(Cl)c3cncc(-c4ccccc4)c3c2)CC1 [Example 311]	6.98	5.24	
Nc1ncc(-c2ccccc2)c2cc(N[C@H]3CC[C@H](N)CC3)cc(Cl)c12 [Example 312, Trans-N6-(4-aminocyclohexyl)-8-chloro-4-phenyl-isoquinoline-1,6-diamine]	6.77	5.89	
Nc1ncc(-c2cc3ccccc3o2)c2cc(N[C@H]3CC[C@H](N)CC3)cc(Cl)c12 [Example 313]	6.55	5.69	
COc1cc(O[C@H]2CC[C@H](N)CC2)cc2c(-c3cc4ccccc4o3)cncc12 [Example 314, Trans-4-[[4-(Benzofuran-2-yl)-8-methoxy-6-isoquinolyl]oxy]cyclohexanamine]	6.52	5.32	
COc1cc(N[C@H]2CC[C@H](N)CC2)cc2c(-c3ccccc3)cncc12 [Example 315]	7.06	5.59	
COc1cc(O[C@H]2CC[C@H](N)CC2)cc2c(-c3ccccc3)cncc12 [Example 316]	7.26	5.25	
Nc1ncc(-c2ccccc2)c2cc(N[C@H]3CC[C@H](N)CC3)ccc12 [Example 317, trans-N6-(4-aminocyclohexyl)-4-phenyl-isoquinoline-1,6-diamine]	6.51	5.34	
Nc1ncc(-c2cc3ccccc3o2)c2cc(O[C@H]3CC[C@H](N)CC3)cc(Cl)c12 [Example 318, trans-6-(4-Aminocyclohexoxy)-4-(benzofuran-2-yl)-8-chloro-isoquinolin-1-amine]	6.53	5.42	
Nc1ncc(-c2ccccc2)c2cc(O[C@H]3CC[C@H](N)CC3)cc(Cl)c12 [Example 319]	7.42	5.55	
COc1cc(O[C@H]2CC[C@H](N)CC2)cc2c(-c3ccccc3)cnc(N)c12 [Example 321]	6.76	5.88	
Nc1ncc(-c2ccccc2)c2cc(O[C@H]3CC[C@H](N)CC3)ccc12 [Example 322]	6.82	5.66	
